The target in assay [1] is recombinant human NF-kappaB-inducing kinase (NIK/MAP3K14) (Homo sapiens (Human), UniProt Q99558). Briefly: Inhibition of auto-phosphorylation of recombinant human NIK/MAP3K14 (AlphaScreen). The following applies: NIK auto-phosphorylation, 5 μM ATP, 1 nM NIK, 2 h at 25° C.; average of values. The class given is biochemical. In a few lines:
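AlphaScreen read-out (anti-phospho-IKK Ser176/180 antibody, Protein A acceptor and glutathione donor beads) of NIK auto-phosphorylation. Reaction: 1 nM enzyme, 5 μM ATP, Tris pH 7.5 buffer with Mg2+ and vanadate, 2 h at 25° C., final DMSO 0.7%. IC50 came from a sigmoidal curve fit.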

The test system of assay [2] is p-IKKα levels in L363 (NIK translocated multiple myeloma) cells. Briefly: Effect of compounds on p-IKKα levels in L363 cells (AlphaLISA SureFire Ultra). The class given is cell-based, human. The following applies: Homo sapiens, L-363, 6 h, BAFF stimulated, MG132, 6 h, average of values, read-out: Assay 2 IC50. In a few lines: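 Inhibition of p-IKKα (Ser176/180) read by AlphaLISA after 6 h, 37 °C compound exposure (11-point 1:3 series, 0.3% DMSO) of L363 cells pre-incubated overnight ± 250 ng/ml BAFF and plated ± BAFF ± 10 μM MG132. Normalised to BAFF/MG132/DMSO and unstimulated controls; IC50 by sigmoidal fitting, duplicates.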

pIC50: −log10 of the molar value. A value given as a limit tells only on which side of the number the result lay.

recombinant human NF-kappaB-inducing kinase (NIK/MAP3K14), sequence (Q99558 whole entry): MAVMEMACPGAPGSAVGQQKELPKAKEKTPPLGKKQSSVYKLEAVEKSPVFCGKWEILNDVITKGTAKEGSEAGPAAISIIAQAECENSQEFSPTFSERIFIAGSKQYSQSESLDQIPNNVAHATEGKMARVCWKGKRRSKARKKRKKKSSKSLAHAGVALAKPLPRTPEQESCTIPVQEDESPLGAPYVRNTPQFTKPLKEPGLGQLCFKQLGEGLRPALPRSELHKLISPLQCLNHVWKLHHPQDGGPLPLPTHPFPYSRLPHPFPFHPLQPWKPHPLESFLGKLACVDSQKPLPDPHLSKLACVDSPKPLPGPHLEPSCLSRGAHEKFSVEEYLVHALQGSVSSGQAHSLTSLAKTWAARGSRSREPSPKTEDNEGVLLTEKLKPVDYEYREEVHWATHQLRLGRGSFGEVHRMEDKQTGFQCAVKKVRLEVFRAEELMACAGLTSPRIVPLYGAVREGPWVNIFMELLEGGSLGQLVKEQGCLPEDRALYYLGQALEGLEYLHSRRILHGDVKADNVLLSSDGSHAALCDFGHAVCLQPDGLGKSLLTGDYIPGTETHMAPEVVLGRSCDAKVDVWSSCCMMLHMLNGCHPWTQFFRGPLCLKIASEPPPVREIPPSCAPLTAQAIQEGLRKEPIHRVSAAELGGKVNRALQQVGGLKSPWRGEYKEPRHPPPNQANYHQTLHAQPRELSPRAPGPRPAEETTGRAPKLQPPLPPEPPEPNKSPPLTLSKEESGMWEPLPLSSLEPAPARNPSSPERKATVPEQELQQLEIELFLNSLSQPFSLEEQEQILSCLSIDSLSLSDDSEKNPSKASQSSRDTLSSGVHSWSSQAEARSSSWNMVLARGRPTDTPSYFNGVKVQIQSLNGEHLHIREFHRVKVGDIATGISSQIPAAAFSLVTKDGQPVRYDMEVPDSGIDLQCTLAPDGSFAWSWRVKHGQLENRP

With `CN1CC[C@@](O)(C#Cc2cccc(-c3nc4c(N)nccc4s3)c2)C1=O` [Example 116, (R)-3-((3-(4-Aminothiazolo[4,5-c]pyridin-2-yl)phenyl)ethynyl)-3-hydroxy-1-methylpyrrolidin-2-one], the pIC50 is 9.05 in assay [1] and 7.33 in assay [2].

Take `Cc1nnc([C@](C)(O)C#Cc2cccc(-c3ccc4ccnc(N)c4n3)c2)o1` [Example 88, (R)-4-[3-(8-Amino-1,7-naphthyridin-2-yl)phenyl]-2-(5-methyl-1,3,4-oxadiazol-2-yl)but-3-yn-2-ol]: the negative logarithm of the IC50 (pIC50) in assay [1] is 8.33; in assay [2], 6.40.

On to `CN1CC[C@@](O)(C#Cc2cccc(-c3cc(N4CC5(C4)CC5(F)F)c4ncnc(N)c4n3)c2)C1=O` [Example 307, (R)-3-[2-[3-[4-Amino-8-(2,2-difluoro-5-azaspiro[2.3]hexan-5-yl)pyrido[3,2-d]pyrimidin-6-yl]phenyl]ethynyl]-3-hydroxy-1-methyl-pyrrolidin-2-one], for which the pIC50 in assay [1] is 8.80; in assay [2], 7.40.

Turning to `Cc1nc(N)c2nc(-c3cccc(C#C[C@@]4(O)C(=O)N(C)[C@@H]5C[C@@H]54)c3)ccc2n1` [Example 273, (1R,4R,5S)-4-((3-(4-Amino-2-methylpyrido[3,2-d]pyrimidin-6-yl)phenyl)ethynyl)-4-hydroxy-2-methyl-2-azabicyclo[3.1.0]hexan-3-one], the pIC50 is 8.57 in assay [1] and 7.57 in assay [2].

In the case of `CN1CC[C@](C#Cc2cccc(-c3ccc4ncnc(N)c4n3)c2)(C(F)F)C1=O` [Example 204, (R)-3-((3-(4-Aminopyrido[3,2-d]pyrimidin-6-yl)phenyl)ethynyl)-3-(difluoromethyl)-1-methylpyrrolidin-2-one], the negative logarithm of the IC50 (pIC50) was 7.68 in assay [1] and 5.97 in assay [2].

Turning to `CN1CC[C@@](O)(C#Cc2cccc(-c3ncc4c(-c5ccc(C(F)(F)F)nc5)cnc(N)c4n3)c2)C1=O` [Example 147, (R)-3-[2-[3-[8-Amino-5-[6-(trifluoromethyl)-3-pyridyl]pyrido[3,4-d]pyrimidin-2-yl]phenyl]ethynyl]-3-hydroxy-1-methyl-pyrrolidin-2-one], the pIC50 in assay [1] is ≥ 9.30; in assay [2] it was 7.85.

Consider `CN1CC[C@](O)(C#Cc2cccc(-c3cc(C4CCOCC4)c4ncnc(N)c4n3)c2)C1=O` [Example 256, (S)-3-((3-(4-Amino-8-(tetrahydro-2H-pyran-4-yl)pyrido[3,2-d]pyrimidin-6-yl)phenyl)ethynyl)-3-hydroxy-1-methylpyrrolidin-2-one], for which the pIC50 in assay [1] was 6.46; in assay [2] it was 5.38.

Take `Cc1nc(N)c2nc(-c3cccc(C#C[C@@]4(O)C(=O)N(C)C[C@@H]4C)c3)ccc2n1` (stereo in doubt) [Example 291, (3R,4S*)-3-((3-(4-Amino-2-methylpyrido[3,2-d]pyrimidin-6-yl)phenyl)ethynyl)-3-hydroxy-1,4-dimethylpyrrolidin-2-one]: the pIC50 in assay [1] was 7.27; in assay [2] it was 5.86.

In the case of `CN1CC[C@@](O)(C#Cc2cccc(-c3cc(N(C)C)c4ncnc(N)c4n3)c2)C1=O` [Example 295, (R)-3-[2-[3-[4-Amino-8-(dimethylamino)pyrido[3,2-d]pyrimidin-6-yl]phenyl]ethynyl]-3-hydroxy-1-methyl-pyrrolidin-2-one], the results for the pIC50 in assay [1] and in assay [2] were 8.51 and 7.74, respectively.

`CNc1ncnc2ccc(-c3cccc(C#C[C@]4(O)CCN(C)C4=O)c3)nc12` [Example 27, (R)-3-Hydroxy-1-methyl-3-((3-(4-(methylamino)pyrido[3,2-d]pyrimidin-6-yl)phenyl)ethynyl)pyrrolidin-2-one]: the pIC50 in assay [1] was 8.11; in assay [2], 6.62.

Consider `Cc1cc(-c2cccc(C#C[C@@]3(O)C(=O)N(C)[C@@H]4C[C@@H]43)c2)nc2c(N)ncnc12` [Example 281, (1R,4R,5S)-4-((3-(4-Amino-8-methylpyrido[3,2-d]pyrimidin-6-yl)phenyl)ethynyl)-4-hydroxy-2-methyl-2-azabicyclo[3.1.0]hexan-3-one], for which the pIC50 in assay [1] was 9.05; in assay [2], 8.11.

As to `[2H]c1nc(N)c2nc(-c3cccc(C#C[C@]4(O)C(=O)N(C)[C@H]5C[C@H]54)c3)ccc2n1` [Example 275, (1S,4S,5R)-4-((3-(4-Aminopyrido[3,2-d]pyrimidin-6-yl-2-d)phenyl)ethynyl)-4-hydroxy-2-methyl-2-azabicyclo[3.1.0]hexan-3-one], the figures for the negative logarithm of the IC50 (pIC50) in assay [1] and in assay [2] were 6.52 and < 5.30, respectively.

For `[2H]C([2H])([2H])N1CC[C@@](O)(C#Cc2cccc(-c3ccc4nc(CF)nc(N)c4n3)c2)C1=O` [Example 208, (R)-3-((3-(4-Amino-2-(fluoromethyl)pyrido[3,2-d]pyrimidin-6-yl)phenyl)ethynyl)-3-hydroxy-1-(methyl-d3)pyrrolidin-2-one], the pIC50 is ≥ 9.30 in assay [1] and 7.92 in assay [2].

For the molecule `Cc1nnc([C@](C)(O)C#Cc2cccc(-c3ncc4ccnc(N)c4n3)c2)o1` [Example 18, (R)-4-[3-(8-Aminopyrido[3,4-d]pyrimidin-2-yl)phenyl]-2-(5-methyl-1,3,4-oxadiazol-2-yl)but-3-yn-2-ol], the pIC50 in assay [1] is 9.05; in assay [2] it was 7.21.

As to `[2H]c1nc(N)c2nc(-c3cccc(C#CC4(O)CCN(CC=C)C4=O)c3)ccc2n1` (racemic) [Example 196, racemic-1-Allyl-3-((3-(4-aminopyrido[3,2-d]pyrimidin-6-yl-2-d)phenyl)ethynyl)-3-hydroxypyrrolidin-2-one], the pIC50 in assay [1] was 8.36; in assay [2], 6.60.

For `Cc1ccc(C#C[C@]2(O)CCN(C)C2=O)cc1-c1ccc2ncnc(N)c2n1` [Example 3, (R)-3-[2-[3-(4-Aminopyrido[3,2-d]pyrimidin-6-yl)-4-methyl-phenyl]ethynyl]-3-hydroxy-1-methyl-pyrrolidin-2-one], the figures for the pIC50 in assay [1] and in assay [2] were 9.15 and 7.55, respectively.

As to `Cc1nc(-c2cccc(C#C[C@]3(O)CCn4ccnc43)c2)nc2c(N)nccc12` [Example 84, (R)-7-((3-(8-Amino-4-methylpyrido[3,4-d]pyrimidin-2-yl)phenyl)ethynyl)-6,7-dihydro-5H-pyrrolo[1,2-a]imidazol-7-ol], the pIC50 is ≥ 9.30 in assay [1] and 8.26 in assay [2].

As to `CN1CCC(O)(C#Cc2cccc(-c3ccc4ccnc(N)c4n3)c2)C1=O` (stereo in doubt) [Example 19, (R)-3-[2-[3-(8-Amino-1,7-naphthyridin-2-yl)phenyl]ethynyl]-3-hydroxy-1-methyl-pyrrolidin-2-one], the pIC50 in assay [1] was ≥ 9.30; in assay [2], 8.00.

In the case of `CNc1cc(-c2cccc(C#C[C@]3(O)CCN(C)C3=O)c2)nc2c(N)ncnc12` [Example 296, (R)-3-[2-[3-[4-Amino-8-(methylamino)pyrido[3,2-d]pyrimidin-6-yl]phenyl]ethynyl]-3-hydroxy-1-methyl-pyrrolidin-2-one], the negative logarithm of the IC50 (pIC50) was ≥ 9.30 in assay [1] and 8.16 in assay [2].

As to `[2H]C([2H])([2H])N1CCC(O)(C#Cc2cccc(-c3ncc4ccnc(N)c4n3)c2)C1=O` (stereo in doubt) [Example 67, (S)-3-[2-[3-(8-Aminopyrido[3,4-d]pyrimidin-2-yl)phenyl]ethynyl]-3-hydroxy-1-(trideuteriomethyl)pyrrolidin-2-one], the values for the negative-log IC50 (pIC50) in assay [1] and in assay [2] were 7.96 and 6.46, respectively.

The record behind these values is patent publication US20240199605A1, “SMALL MOLECULAR INHIBITORS OF NF-kB INDUCING KINASE” (Janssen Pharmaceutica NV, priority 2019, published 2024).
